Measured values published in US11084829B2, “Ubiquitin-specific-processing protease 7 (USP7) modulators and uses thereof” (RAPT THERAPEUTICS, INC., priority 2018, dated 2021).

Biological target: USP7 (Homo sapiens, UniProt Q93009)
Assay: USP7 inhibitory potency (IC50)
Type: biochemical
Procedure: Activity for compounds described herein is provided in Table 2, wherein potency levels are provided as follows: (Potency: USP7 IC50: A<0.01 μM; B=0.01-0.1 μM; C=>0.1 μM.

Chain of USP7 (Q93009 whole entry): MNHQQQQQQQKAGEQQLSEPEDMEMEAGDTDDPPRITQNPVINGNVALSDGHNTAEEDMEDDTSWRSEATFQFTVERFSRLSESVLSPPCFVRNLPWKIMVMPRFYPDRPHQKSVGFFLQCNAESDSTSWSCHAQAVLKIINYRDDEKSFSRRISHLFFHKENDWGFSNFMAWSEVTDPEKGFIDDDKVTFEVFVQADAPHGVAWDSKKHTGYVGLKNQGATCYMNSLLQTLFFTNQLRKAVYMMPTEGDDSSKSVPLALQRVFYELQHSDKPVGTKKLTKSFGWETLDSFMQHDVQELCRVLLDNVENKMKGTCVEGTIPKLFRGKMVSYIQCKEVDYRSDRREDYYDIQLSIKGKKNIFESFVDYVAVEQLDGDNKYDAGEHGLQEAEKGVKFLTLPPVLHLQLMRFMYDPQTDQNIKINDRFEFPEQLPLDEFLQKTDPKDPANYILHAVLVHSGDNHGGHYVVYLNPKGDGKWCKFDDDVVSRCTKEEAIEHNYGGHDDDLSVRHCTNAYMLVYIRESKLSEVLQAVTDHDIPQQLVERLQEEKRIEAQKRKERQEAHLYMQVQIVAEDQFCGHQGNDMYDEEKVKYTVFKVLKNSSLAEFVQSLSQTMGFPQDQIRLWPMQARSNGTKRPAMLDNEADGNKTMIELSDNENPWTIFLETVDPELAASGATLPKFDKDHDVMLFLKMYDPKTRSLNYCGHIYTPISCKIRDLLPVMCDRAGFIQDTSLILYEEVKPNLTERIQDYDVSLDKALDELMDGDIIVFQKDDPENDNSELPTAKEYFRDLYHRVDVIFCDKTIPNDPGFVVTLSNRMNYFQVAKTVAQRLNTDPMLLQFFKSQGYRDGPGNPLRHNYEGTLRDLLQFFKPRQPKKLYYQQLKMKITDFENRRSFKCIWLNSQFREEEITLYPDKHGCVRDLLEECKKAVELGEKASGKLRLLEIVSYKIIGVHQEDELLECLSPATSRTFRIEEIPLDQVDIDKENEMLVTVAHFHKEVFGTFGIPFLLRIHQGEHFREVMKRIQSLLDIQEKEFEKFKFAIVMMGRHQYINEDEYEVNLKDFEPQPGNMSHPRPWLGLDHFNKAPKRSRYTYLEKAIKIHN

SMILES | IC50 [nM]
Cc1cc(Cl)cc(-c2ncnc3cc(CN4C(=O)OC[C@@H]4CF)sc23)c1C[C@@H]1CNCC(C)(C)O1 [Example 263, (R)-3-((4-(5-chloro-2-(((R)-6,6-dimethylmorpholin-2-yl)methyl)-3-methylphenyl)thieno[3,2-d]pyrimidin-6-yl)methyl)-4-(fluoromethyl)oxazolidin-2-one] | < 10
Cc1cc(Cl)cc(-c2ccnc3cc(CN4C(=O)C5CC5C4=O)sc23)c1CN1C[C@@H](C)NC[C@H]1C (stereo partly drawn) [Example 34, 3-((7-(5-chloro-2-(((2R,5R)-2,5-dimethylpiperazin-1-yl)methyl)-3-methylphenyl)thieno[3,2-b]pyridin-2-yl)methyl)-3-azabicyclo[3.1.0]hexane-2,4-dione] | < 10
Cc1cc(Cl)cc(-c2ccnc3cc([C@H](C)N4C(=O)C5C(C4=O)C5(C)C)sc23)c1C[C@@H]1CNCCO1 (stereo partly drawn) [Example 133, 3-((S)-1-(7-(5-chloro-3-methyl-2-(((R)-morpholin-2-yl)methyl)phenyl)thieno[3,2-b]pyridin-2-yl)ethyl)-6,6-dimethyl-3-azabicyclo[3.1.0]hexane-2,4-dione] | < 10
Cc1cc(Cl)cc(-c2ncnc3cc(CN4C(=O)CC[C@H]4C(F)(F)F)sc23)c1CN1[C@@H](C)CNC[C@@H]1C [Example 90, (S)-1-((4-(5-chloro-2-(((2S,6S)-2,6-dimethylpiperazin-1-yl)methyl)-3-methylphenyl)thieno[3,2-d]pyrimidin-6-yl)methyl)-5-(trifluoromethyl)pyrrolidin-2-one] | > 100
Cc1cc(Cl)cc(-c2ncnc3cc(CN4C(=O)C5C(C4=O)C5(C)C)sc23)c1CN1CCNC[C@@H]1C (stereo partly drawn) [Example 50, 3-((4-(5-chloro-3-methyl-2-(((S)-2-methylpiperazin-1-yl)methyl)phenyl)thieno[3,2-d]pyrimidin-6-yl)methyl)-6,6-dimethyl-3-azabicyclo[3.1.0]hexane-2,4-dione] | < 10
C[C@H]1CNCCN1Cc1ccc(Cl)cc1-c1ncnc2cc(CN3C(=O)C4CC4C3=O)sc12 (stereo partly drawn) [Example 64, 3-((4-(5-chloro-2-(((S)-2-methylpiperazin-1-yl)methyl)phenyl)thieno[3,2-d]pyrimidin-6-yl)methyl)-3-azabicyclo[3.1.0]hexane-2,4-dione] | 10 to 100
Cc1cc(Cl)cc(-c2ccnc3cc(CN4C(=O)CN(C)C4=O)sc23)c1C[C@@H]1CNCCO1 [Example 126, (R)-3-((7-(5-chloro-3-methyl-2-(morpholin-2-ylmethyl)phenyl)thieno[3,2-b]pyridin-2-yl)methyl)-1-methylimidazolidine-2,4-dione] | < 10
CCN1CC(=O)N(Cc2cc3ncnc(-c4cc(Cl)cc(C)c4CN4C[C@@H](C)NC[C@@H]4C)c3s2)C1=O [Example 83, 3-((4-(5-chloro-2-(((2S,5R)-2,5-dimethylpiperazin-1-yl)methyl)-3-methylphenyl)thieno[3,2-d]pyrimidin-6-yl)methyl)-1-ethylimidazolidine-2,4-dione] | < 10
Cc1cc(Cl)cc(-c2ncnc3cc(CN4C(=O)CCNC4=O)sc23)c1C[C@@H]1CNCCO1 [Example 247, (R)-3-((4-(5-chloro-3-methyl-2-(morpholin-2-ylmethyl)phenyl)thieno[3,2-d]pyrimidin-6-yl)methyl)dihydropyrimidine-2,4(1H,3H)-dione] | < 10
CN1CCC(=O)N(Cc2cc3nccc(-c4cc(Cl)cc(Cl)c4CC4CNCC(C)(C)O4)c3s2)C1=O (centres unmarked) [Example 135, 3-((7-(3,5-dichloro-2-((6,6-dimethylmorpholin-2-yl)methyl)phenyl)thieno[3,2-b]pyridin-2-yl)methyl)-1-methyldihydropyrimidine-2,4(1H,3H)-dione] | < 10
Cc1cc(Cl)cc(-c2ccnc3cc(CN4C(=O)C5CC5C4=O)sc23)c1C[C@@H]1CNCC(C)(C)O1 (stereo partly drawn) [Example 129, 3-((7-(5-chloro-2-(((R)-6,6-dimethylmorpholin-2-yl)methyl)-3-methylphenyl)thieno[3,2-b]pyridin-2-yl)methyl)-3-azabicyclo[3.1.0]hexane-2,4-dione] | < 10
Cc1cc(Cl)cc(-c2ccnc3cc(CN4C(=O)CCCC4C(F)(F)F)sc23)c1CC1CNCCO1 (centres unmarked) [Example 122, 1-((7-(5-chloro-3-methyl-2-(morpholin-2-ylmethyl)phenyl)thieno[3,2-b]pyridin-2-yl)methyl)-6-(trifluoromethyl)piperidin-2-one] | > 100
COC[C@H]1CCC(=O)N1Cc1cc2ncnc(-c3cc(Cl)cc(C)c3CC3CNCC(C)(C)O3)c2s1 (stereo partly drawn) [Example 229, (5R)-1-((4-(5-chloro-2-((6,6-dimethylmorpholin-2-yl)methyl)-3-methylphenyl)thieno[3,2-d]pyrimidin-6-yl)methyl)-5-(methoxymethyl)pyrrolidin-2-one] | 10 to 100
CC1(C)CNCC(Cc2c(Cl)cc(Cl)cc2-c2ncnc3cc(CN4C(=O)CCC4=O)sc23)O1 (centres unmarked) [Example 211, 1-((4-(3,5-dichloro-2-((6,6-dimethylmorpholin-2-yl)methyl)phenyl)thieno[3,2-d]pyrimidin-6-yl)methyl)pyrrolidine-2,5-dione] | < 10
CCN1CC(=O)N(Cc2cc3ncnc(-c4cc(Cl)cc(C)c4CC4CNCCO4)c3s2)C1=O (centres unmarked) [Example 188, 3-((4-(5-chloro-3-methyl-2-(morpholin-2-ylmethyl)phenyl)thieno[3,2-d]pyrimidin-6-yl)methyl)-1-ethylimidazolidine-2,4-dione] | < 10
Cc1cc(Cl)cc(-c2ccnc3cc(Cn4c(=O)ccn(CC(F)(F)F)c4=O)sc23)c1CN1CCCNCC1=O [Example 256, 3-((7-(5-chloro-3-methyl-2-((2-oxo-1,4-diazepan-1-yl)methyl)phenyl)thieno[3,2-b]pyridin-2-yl)methyl)-1-(2,2,2-trifluoroethyl)pyrimidine-2,4(1H,3H)-dione] | 10 to 100
Cc1cc(Cl)cc(-c2ncnc3cc(CN4C(=O)CC[C@@H]4C(F)F)sc23)c1C[C@@H]1CNCC(C)(C)O1 [Example 242, (R)-1-((4-(5-chloro-2-(((R)-6,6-dimethylmorpholin-2-yl)methyl)-3-methylphenyl)thieno[3,2-d]pyrimidin-6-yl)methyl)-5-(difluoromethyl)pyrrolidin-2-one] | < 10
CN1CC(=O)N(Cc2cc3nccc(-c4cc(Cl)cc(Cl)c4CC4CNCCO4)c3s2)C1=O (centres unmarked) [Example 141, 3-((7-(3,5-dichloro-2-(morpholin-2-ylmethyl)phenyl)thieno[3,2-b]pyridin-2-yl)methyl)-1-methylimidazolidine-2,4-dione] | < 10
Cc1cc(Cl)cc(-c2ccnc3c(F)c(CN4C(=O)C5CC5C4=O)sc23)c1C[C@@H]1CNCCO1 (stereo partly drawn) [Example 125, 3-((7-(5-chloro-3-methyl-2-(((R)-morpholin-2-yl)methyl)phenyl)-3-fluorothieno[3,2-b]pyridin-2-yl)methyl)-3-azabicyclo[3.1.0]hexane-2,4-dione] | < 10
Cc1cc(Cl)cc(-c2ccnc3cc(CN4C(=O)C5CC5C4=O)sc23)c1CN1C[C@H](C)NC[C@H]1C (stereo partly drawn) [Example 37, 3-((7-(5-chloro-2-(((2R,5 S)-2,5-dimethylpiperazin-1-yl)methyl)-3-methylphenyl)thieno[3,2-b]pyridin-2-yl)methyl)-3-azabicyclo[3.1.0]hexane-2,4-dione] | < 10
Cc1cc(Cl)cc(-c2ncnc3cc(CN4CCCCC4=O)sc23)c1CC1CNCCO1 (centres unmarked) [Example 175, 1-((4-(5-chloro-3-methyl-2-(morpholin-2-ylmethyl)phenyl)thieno[3,2-d]pyrimidin-6-yl)methyl)piperidin-2-one] | > 100
Cc1cc(Cl)cc(-c2ccnc3cc(CN4C(=O)CCC4=O)sc23)c1CN1CCNCC1(C)C [Example 12, 1-((7-(5-chloro-2-((2,2-dimethylpiperazin-1-yl)methyl)-3-methylphenyl)thieno[3,2-b]pyridin-2-yl)methyl)pyrrolidine-2,5-dione] | < 10
Cc1cc(Cl)cc(-c2ncnc3cc(CN4CCCCC4=O)sc23)c1CN1C[C@@H](C)NC[C@@H]1C [Example 82, 1-((4-(5-chloro-2-(((2S,5R)-2,5-dimethylpiperazin-1-yl)methyl)-3-methylphenyl)thieno[3,2-d]pyrimidin-6-yl)methyl)piperidin-2-one] | > 100
Cc1cc(Cl)cc(-c2ncnc3cc(CN4C(=O)C5CC5C4=O)sc23)c1CC1(C)CNCCO1 (centres unmarked) [Example 156, 3-((4-(5-chloro-3-methyl-2-((2-methylmorpholin-2-yl)methyl)phenyl)thieno[3,2-d]pyrimidin-6-yl)methyl)-3-azabicyclo[3.1.0]hexane-2,4-dione] | 10 to 100
Cc1cc(Cl)cc(-c2ccnc3c(F)c(CN4C(=O)CC[C@@H]4CF)sc23)c1C[C@@H]1CNCCO1 [Example 149, (R)-1-((7-(5-chloro-3-methyl-2-(((R)-morpholin-2-yl)methyl)phenyl)-3-fluorothieno[3,2-b]pyridin-2-yl)methyl)-5-(fluoromethyl)pyrrolidin-2-one] | 10 to 100
Cc1cc(Cl)cc(-c2ncnc3cc(CN4C(=O)CNC4=O)sc23)c1C[C@@H]1CNCCO1 [Example 243, (R)-3-((4-(5-chloro-3-methyl-2-(morpholin-2-ylmethyl)phenyl)thieno[3,2-d]pyrimidin-6-yl)methyl)imidazolidine-2,4-dione] | < 10
C[C@H]1CNC[C@H](C)N1Cc1c(Cl)cc(Cl)cc1-c1ncnc2cc(CN3C(=O)C4CC4C3=O)sc12 (stereo partly drawn) [Example 85, 3-((4-(3,5-dichloro-2-(((2S,6S)-2,6-dimethylpiperazin-1-yl)methyl)phenyl)thieno[3,2-d]pyrimidin-6-yl)methyl)-3-azabicyclo[3.1.0]hexane-2,4-dione] | < 10
Cc1cc(Cl)cc(-c2ccnc3cc(CN4C(=O)CCC4=O)sc23)c1CN1CCN(CCO)C[C@@H]1C [Example 13, (S)-1-((7-(5-chloro-2-((4-(2-hydroxyethyl)-2-methylpiperazin-1-yl)methyl)-3-methylphenyl)thieno[3,2-b]pyridin-2-yl)methyl)pyrrolidine-2,5-dione] | < 10
CC1(C)CNCC(Cc2c(Cl)cc(Cl)cc2-c2ncnc3cc(Cn4cnccc4=O)sc23)O1 (centres unmarked) [Example 251, 3-((4-(3,5-dichloro-2-((6,6-dimethylmorpholin-2-yl)methyl)phenyl)thieno[3,2-d]pyrimidin-6-yl)methyl)pyrimidin-4(3H)-one] | > 100
